# Measured values from patent US11129827B2 (priority 2017, dated 2021).
# Like-named read-outs stand apart in the source and are kept apart here.
# Assays:
# FAAH [1] = molecular target: FAAH (Homo sapiens (Human), UniProt O00519); test: biochemical; conditions: for inhibition at 1 µM: read-out: FAAH (human) % inh. 1 μM
# MAGL [2] = molecular target: MAGL (Homo sapiens (Human), UniProt Q99685); test: biochemical; conditions: for inhibition at 1 µM: read-out: MAGL (human) % inh. 1 μM
# FAAH [3] = molecular target: FAAH (Mus musculus (Mouse), UniProt O08914); test: in vivo; conditions: po, read-out: FAAH (mouse) % inh. 5 mg/kg
# MAGL [4] = molecular target: MAGL (Mus musculus (Mouse), UniProt O35678); test: in vivo; conditions: po, read-out: MAGL (mouse) % inh. 5 mg/kg
SMILES,inhibition at 1 µM (FAAH [1]),IC50 (FAAH [1]; read-out: FAAH (human) IC50),inhibition at 1 µM (MAGL [2]),IC50 (MAGL [2]; read-out: MAGL (human) IC50),inhibition at 5 mg/kg (FAAH [3]),inhibition at 5 mg/kg (MAGL [4]),IC50 (FAAH [1]),IC50 (MAGL [2])
"NC(=O)c1cncc(OC(=O)N2CCC3(CCN(Cc4cc(Cl)ccc4C(F)(F)F)C3)CC2)c1 [Example 4, 5-Carbamoylpyridin-3-yl 2-(5-chloro-2-(trifluoromethyl)benzyl)-2,8-diazaspiro[4.5]decane-8-carboxylate]",> 75%,< 100 nM,> 75%,< 100 nM,> 75%,> 75%,–,–
"O=C(Oc1cncc(C(F)(F)F)c1)N1CCC2(CC1)CN(Cc1cccc(Oc3nc4ccccc4s3)c1)C2 [Example 7, 5-(Trifluoromethyl)pyridin-3-yl 2-(3-(benzo[d]thiazol-2-yloxy)benzyl)-2,7-diazaspiro[3.5]nonane-7-carboxylate]",> 75%,< 100 nM,> 75%,< 100 nM,> 75%,25 to 50%,–,–
"CC(C)Oc1cc(CN2CCN(C(=O)Oc3cncc(NS(C)(=O)=O)c3)CC2)ccc1Cl [Example 15, 5-(Methylsulfonamido)pyridin-3-yl 4-(4-chloro-3-isopropoxybenzyl)piperazine-1-carboxylate]",> 75%,–,> 75%,100 to 1000 nM,0 to 25%,0 to 25%,< 100 nM,–
"CC(C)Oc1ccc(CN2CCN(C(=O)Oc3cncc(C(N)=O)c3)CC2)c(OC(F)(F)F)c1 [Example 18, 5-Carbamoylpyridin-3-yl 4-(4-isopropoxy-2-(trifluoromethoxy)benzyl)piperazine-1-carboxylate]",> 75%,100 to 1000 nM,> 75%,100 to 1000 nM,> 75%,> 75%,–,–
"C[C@@H]1CN(Cc2cc(F)cc(C(F)(F)F)c2)CCN1C(=O)Oc1cncc(C(N)=O)c1 [Example 20, 5-Carbamoylpyridin-3-yl (R)-4-(3-fluoro-5-(trifluoromethyl)benzyl)-2-methylpiperazine-1-carboxylate]",> 75%,< 100 nM,> 75%,< 100 nM,> 75%,> 75%,–,–
"NC(=O)c1cncc(OC(=O)N2CCC3(CCN(Cc4ccc(Cl)c(Cl)c4)C3)CC2)c1 [Example 36, 5-Carbamoylpyridin-3-yl 2-(3,4-dichlorobenzyl)-2,8-diazaspiro[4.5]decane-8-carboxylate]",> 75%,< 100 nM,> 75%,< 100 nM,> 75%,25 to 50%,–,–
"O=C(Oc1cncc(C(F)(F)F)c1)N1CCC2(CC1)CN(Cc1cccc(Oc3cncc(C(F)(F)F)c3)c1)C2 [Example 38, 5-(Trifluoromethyl)pyridin-3-yl 2-(3-((5-(trifluoromethyl)pyridin-3-yl)oxy)benzyl)-2,7-diazaspiro[3.5]nonane-7-carboxylate]",> 75%,< 100 nM,> 75%,< 100 nM,> 75%,0 to 25%,–,–
"O=C(Oc1cncc(C(F)(F)F)c1)N1CCC2(CC1)CN(Cc1cccc(Oc3cccc(Cl)c3)c1Cl)C2 [Example 40, 5-(Trifluoromethyl)pyridin-3-yl 2-(2-chloro-3-(3-chlorophenoxy)benzyl)-2,7-diazaspiro[3.5]nonane-7-carboxylate]",> 75%,100 to 1000 nM,> 75%,–,–,–,–,< 100 nM
"O=C(Oc1cncc(C(F)(F)F)c1)N1CCC2(CC1)CN(Cc1cccc(Oc3ccccc3)c1Cl)C2 [Example 41, 5-(Trifluoromethyl)pyridin-3-yl 2-(2-chloro-3-phenoxybenzyl)-2,7-diazaspiro[3.5]nonane-7-carboxylate]",> 75%,–,> 75%,–,–,–,–,–
"O=C(Oc1cncc(C(F)(F)F)c1)N1CCN(Cc2cc(Cl)ccc2C(F)(F)F)CC1 [Example 44, 5-(Trifluoromethyl)pyridin-3-yl 4-(5-chloro-2-(trifluoromethyl)benzyl)piperazine-1-carboxylate]",> 75%,100 to 1000 nM,> 75%,100 to 1000 nM,–,–,–,–
"N#Cc1cncc(OC(=O)N2CCN(Cc3cccc(Oc4ncccn4)c3)CC2)c1 [Example 50, 5-Cyanopyridin-3-yl 4-(3-(pyrimidin-2-yloxy)benzyl)piperazine-1-carboxylate]",> 75%,100 to 1000 nM,> 75%,–,–,–,–,< 100 nM
"CC(=O)Nc1cncc(OC(=O)N2CCN(Cc3ccc(Cl)c(OC(C)C)c3)CC2)c1 [Example 52, 5-Acetamidopyridin-3-yl 4-(4-chloro-3-isopropoxybenzyl)pipera-zine-1-carboxylate]",> 75%,100 to 1000 nM,> 75%,–,> 75%,0 to 25%,–,< 100 nM
"CC(C)Oc1cc(CN2CCN(C(=O)Oc3cncc(C(N)=O)c3)[C@H](C)C2)ccc1Cl [Example 56, (R)-5-Carbamoylpyridin-3-yl 4-(4-chloro-3-isopropoxybenzyl)-2-methylpiperazine-1-carboxylate]",> 75%,100 to 1000 nM,> 75%,100 to 1000 nM,–,–,–,–
"Cc1c(CN2CCN(C(=O)Oc3cncc(C(N)=O)c3)[C@H](C)C2)cccc1C(F)(F)F [Example 58, (R)-5-Carbamoylpyridin-3-yl 2-methyl-4-(2-methyl-3-(trifluoromethyl)benzyl)piperazine-1-carboxylate]",> 75%,–,> 75%,100 to 1000 nM,–,–,< 100 nM,–
"Cc1c(CN2CCN(C(=O)Oc3cncc(C(N)=O)c3)[C@@H](C)C2)cccc1C(F)(F)F [Example 59, (S)-5-Carbamoylpyridin-3-yl 2-methyl-4-(2-methyl-3-(trifluoromethyl)benzyl)piperazine-1-carboxylate]",50 to 75%,–,> 75%,–,–,–,–,–
"C[C@@H]1CN(Cc2cc(Cl)cc(C(F)(F)F)c2)CCN1C(=O)Oc1cncc(C(N)=O)c1 [Example 65, (R)-5-Carbamoylpyridin-3-yl 4-(3-chloro-5-(trifluoromethyl)benzyl)-2-methylpiperazine-1-carboxylate]",> 75%,100 to 1000 nM,> 75%,100 to 1000 nM,> 75%,> 75%,–,–
"C[C@@H]1CN(Cc2cccc(C(F)(F)F)c2Cl)CCN1C(=O)Oc1cncc(C(N)=O)c1 [Example 66, (R)-5-Carbamoylpyridin-3-yl 4-(2-chloro-3-(trifluoromethyl)benzyl)-2-methylpiperazine-1-carboxylate]",> 75%,< 100 nM,> 75%,< 100 nM,–,–,–,–
"C[C@@H]1CN(Cc2cccc(OC(F)(F)F)c2)CCN1C(=O)Oc1cncc(C(N)=O)c1 [Example 74, (R)-5-Carbamoylpyridin-3-yl 2-methyl-4-(3-(trifluoromethoxy)benzyl)piperazine-1-carboxylate]",> 75%,–,25 to 50%,100 to 1000 nM,> 75%,> 75%,< 100 nM,–
"Cc1c(OC(=O)N2CCN(Cc3cccc(C(F)(F)F)c3C)C[C@H]2C)cncc1C(N)=O [Example 82, 5-Carbamoyl-4-methylpyridin-3-yl (R)-2-methyl-4-(2-methyl-3-(trifluoromethyl)benzyl)piperazine-1-carboxylate]",> 75%,–,0 to 25%,–,–,–,–,–
"Cc1c(C#N)cncc1OC(=O)N1CCN(Cc2cccc(C(F)(F)F)c2C)C[C@H]1C [Example 83, 5-Cyano-4-methylpyridin-3-yl (R)-2-methyl-4-(2-methyl-3-(trifluoromethyl)benzyl)piperazine-1-carboxylate]",> 75%,–,> 75%,100 to 1000 nM,–,–,< 100 nM,–
"C[C@@H]1CN(Cc2cccc(Oc3ncccn3)c2)CCN1C(=O)Oc1cncc(C#N)c1 [Example 84, 5-Cyanopyridin-3-yl (R)-2-methyl-4-(3-(pyrimidin-2-yloxy)benzyl)piperazine-1-carboxylate]",> 75%,100 to 1000 nM,> 75%,–,–,–,–,< 100 nM
"C[C@@H]1CN(Cc2cc(Cl)cc(Oc3ncccn3)c2)CCN1C(=O)Oc1cncc(C#N)c1 [Example 86, 5-Cyanopyridin-3-yl (R)-4-(3-chloro-5-(pyrimidin-2-yloxy)benzyl)-2-methylpiperazine-1-carboxylate]",> 75%,–,> 75%,–,> 75%,> 75%,< 100 nM,100 to 1000 nM
